Experiments:
CCKB receptor = target: T1, CCKB receptor (Mus musculus, UniProt P56481); assay: radioligand binding assay at the CCKB receptor in mouse cortical membranes ([125I]-CCK8S); conditions: 150 min at 21±3°; for Ki: read-out: CCKB pKi (converted)
T1 construct: The cortex was dissected, weighed and homogenised in 40 ml ice-cold buffer; from tissue; host or cells: cerebral cortex membranes of male CD1 mice (Charles River)
T1 sequence (P56481 1-453): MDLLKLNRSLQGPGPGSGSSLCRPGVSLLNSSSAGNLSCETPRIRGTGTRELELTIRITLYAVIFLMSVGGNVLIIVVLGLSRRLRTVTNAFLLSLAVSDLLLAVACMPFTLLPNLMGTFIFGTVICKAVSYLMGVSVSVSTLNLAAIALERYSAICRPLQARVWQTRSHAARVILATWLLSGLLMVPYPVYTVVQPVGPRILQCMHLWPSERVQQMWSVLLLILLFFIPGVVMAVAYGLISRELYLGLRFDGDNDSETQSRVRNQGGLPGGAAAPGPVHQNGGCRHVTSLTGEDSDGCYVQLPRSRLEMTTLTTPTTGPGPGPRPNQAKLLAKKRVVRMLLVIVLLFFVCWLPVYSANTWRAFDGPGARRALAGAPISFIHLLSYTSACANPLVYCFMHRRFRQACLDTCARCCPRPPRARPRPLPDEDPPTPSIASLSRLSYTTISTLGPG
Procedure, shortened: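 Competition binding on cortical membranes from male CD1 mice in pH 7.2 HEPES buffer with bacitracin, using [125I]-CCK8S (200 pM) and test compound, 150 min at 21±3°. Non-specific binding defined with L-365,260 ([…]). Bound radioactivity collected by filtration and gamma-counted.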

gastrin receptors = target: T2, gastrin receptors (Rattus norvegicus, UniProt P30553); assay: gastrin antagonist activity in an immature rat stomach assay (pentagastrin-stimulated acid secretion); conditions: isolated immature rat stomach, cumulative pentagastrin dose-response curves; for Kb: read-out: Gastrin pKB (converted)
T2 construct: from tissue; host or cells: isolated perfused whole stomach of immature rats (33-50 g, ca. 21 days old)
T2 sequence (P30553 1-452): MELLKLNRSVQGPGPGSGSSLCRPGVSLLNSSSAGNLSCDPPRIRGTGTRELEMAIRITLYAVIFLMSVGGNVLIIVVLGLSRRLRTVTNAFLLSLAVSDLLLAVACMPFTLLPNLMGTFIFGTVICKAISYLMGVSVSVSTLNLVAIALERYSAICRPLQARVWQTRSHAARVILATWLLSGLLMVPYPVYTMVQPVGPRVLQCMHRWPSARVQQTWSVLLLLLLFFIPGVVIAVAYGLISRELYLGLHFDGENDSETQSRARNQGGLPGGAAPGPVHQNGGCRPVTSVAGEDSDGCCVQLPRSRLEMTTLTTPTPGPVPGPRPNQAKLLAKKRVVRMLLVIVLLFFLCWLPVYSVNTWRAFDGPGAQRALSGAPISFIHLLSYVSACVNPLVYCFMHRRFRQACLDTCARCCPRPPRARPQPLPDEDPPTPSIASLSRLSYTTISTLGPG
Procedure: The compounds of the examples were also tested for gastrin antagonist activity in an immature rat stomach assay. The procedure was as follows:
The oesophagus of immature rats (33-50 g, ca. 21 days old) was ligated at the level of the cardiac sphincter and the duodenal sphincter was cannulated. The stomach was excised and flushed with ca. 1 ml of unbuffered physiological saline solution. The fundus was punctured and cannulated. A further 4-5 ml of unbuffered solution was flushed through the stomach to ensure the preparation was not leaking. The stomach was lowered into a jacketed organ bath containing 40 ml of buffered solution containing 3×10^-8 M 5-methyl-furmethide, maintained at 37° and gassed vigorously with 95% O2 /5% CO2. The stomach was continuously perfused at a rate of 1 ml min^-1 with unbuffered solution gassed with 100% O2 with the perfusate passing over an internally referenced pH-electrode fixed 12 cm above the stomach.
After 120 min of stabilisation the drugs were added directly to the serosal solution in the organ bath and after a further 60 min cumulative pentagastrin dose-response curves were started. Changes in acid secretion were monitored and the curves analysed according to Black et. al., Br. J. Pharmacol., 1985, 86, 581.

CCKA = target: T3, CCKA (Cavia porcellus, UniProt Q63931); assay: CCKA binding assay in guinea-pig pancreas membranes ([125I]-CCK8(S)); conditions: 150 minutes at 21±3°; for CCKA pKi: 0.375 μM PD134,308; for Ki: 0.375 μM PD134,308, read-out: CCKA pKi (converted)
T3 construct: The pancreatata were removed from male guinea-pigs (200-300 g; Dunkin Hartley); from tissue; host or cells: pancreas membranes of male Dunkin Hartley guinea-pigs
T3 sequence (Q63931 1-430): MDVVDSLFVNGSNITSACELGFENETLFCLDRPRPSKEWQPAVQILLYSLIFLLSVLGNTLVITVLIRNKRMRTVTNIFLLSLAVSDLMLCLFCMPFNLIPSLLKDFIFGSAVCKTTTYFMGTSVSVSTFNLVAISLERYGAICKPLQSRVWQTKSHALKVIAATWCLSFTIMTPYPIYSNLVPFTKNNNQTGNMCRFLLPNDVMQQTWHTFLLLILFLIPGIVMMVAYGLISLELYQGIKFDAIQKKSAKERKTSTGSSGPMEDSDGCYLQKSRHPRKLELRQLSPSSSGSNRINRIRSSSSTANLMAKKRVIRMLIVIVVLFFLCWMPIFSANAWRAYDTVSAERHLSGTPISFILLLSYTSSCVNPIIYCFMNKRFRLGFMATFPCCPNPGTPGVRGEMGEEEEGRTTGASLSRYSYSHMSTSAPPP
Procedure: The compounds of the examples were also tested in a CCKA binding assay as follows:
The pancreatata were removed from male guinea-pigs (200-300 g; Dunkin Hartley) and placed in ice-cold HEPES buffer (pH 7.2 @ 21±3°). The pancreatata were homogenised in 40 ml ice-cold HEPES buffer using a polytron (Brinkmann, PT10, setting 10) 4×1 second. The homogenate was centrifuged at 39,800 g for 15 min at 4°. The supernatant was discarded and the pellet re-suspended using a Teflon-in-glass homogeniser in 20 volumes of fresh buffer and re-centrifuged as above. The final pellet was re-suspended using a Teflon-in-glass homogeniser to a tissue concentration of 1 mg.ml^-1 (original wet weight), and filtered through 500 μm pore-size Nytex mesh.
The membranes (400 μl; containing 0.375 μM PD134,308) are incubated for 150 minutes at 21±3° in a final volume of 0.5 ml with HEPES buffer containing [^125 I]-CCK8 (S)(50 μl; pM) and competing compound. Total and non-specific binding of [^125 I]-CCK8 (S) are defined using 50 μl of buffer and 50 μl of 100 nM L-364,718 respectively. The assay is terminated by rapid filtration through pre-soaked Whatman GF/B filters using a Brandell Cell Harvester. The filters were washed (3×3 ml) with ice-cold 50 mM Tris HCl (pH 7.4 at 4°) and bound radioactivity is determined by counting (1 min) in a gamma counter.

## exo-cis-7-(2-R-(3-indolyl)-1-carboxy-ethylaminocarbonyl)-8-(1-adamantylmethylaminocarbonyl)-5,6-benzobicyclo[2.2.2]oct-2-ene [Example 17]
CCKB receptor
  CCKB pKi: 6.8
Gastrin receptors; 60 min
  Gastrin pKB: 6.2
CCKA
  CCKA pKi: 6.3

## (±)-endo-cis-8-(1-adamantylmethylaminocarbonyl)-2-(±)-benzyl-5,6-benzobicyclo[2.2.2]octane-7-carboxylic acid [Example 36]
CCKB receptor
  CCKB pKi: 5.8
CCKA
  CCKA pKi: 5.4

## O=C(O)CNC(=O)[C@H]1CCCN1C(=O)C1C2c3ccccc3C(c3cc4ccccc4cc32)C1C(=O)NCC12CC3CC(CC(C3)C1)C2 (single isomer, unassigned) [Example 38, cis-7-(2R-carboxymethylaminocarbonyl-pyrrolidinocarbonyl)-8-(1-adamantylmethylaminocarbonyl)-2,3-benzo-5,6-(2,3-naphtho)bicyclo[2.2.2]octane]
CCKB receptor
  Ki: 0.251 µM
Gastrin receptors
  Kb: 0.631 µM
CCKA
  Ki: 7.94 µM

## C[C@@H](NC(=O)[C@H]1CCCN1C(=O)C1C2CCC(c3ccccc32)C1C(=O)NCC12CC3CC(CC(C3)C1)C2)C(=O)O (stereo partly drawn) [Example 41, cis-exo-7-(2R-(1R-carboxyethylaminocarbonyl)-pyrrolidinocarbonyl)-8-(1-adamantylmethylaminocarbonyl)-2,3-benzobicyclo[2.2.2]octane]
CCKB receptor
  Ki: 5.01 µM
CCKA
  Ki: 7.94 µM

## C[C@H](NC(=O)[C@@H]1CCCN1C(=O)C1C2CCC(c3ccccc32)C1C(=O)NCC12CC3CC(CC(C3)C1)C2)C(=O)O (stereo partly drawn) [Example 43, cis-exo-7-(2S-(1S-carboxyethylaminocarbonyl)-pyrrolidinocarbonyl)-8-(1-adamantylmethylaminocarbonyl)-2,3-benzobicyclo[2.2.2]octane]
CCKB receptor
  Ki: 2 µM
CCKA
  Ki: 10 µM

## O=C(NCC12CC3CC(CC(C3)C1)C2)C1C2C=CC(c3ccccc32)C1C(=O)N[C@H](Cc1c[nH]c2ccccc12)C(=O)O (single isomer, unassigned) [Example 18, exo-cis-7-(2-R-(3-indolyl)-1-carboxy-ethylaminocarbonyl)-8-(1-adamantylmethylaminocarbonyl)-5,6-benzobicyclo[2.2.2]oct-2-ene]
CCKB receptor
  Ki: 0.794 µM
Gastrin receptors
  Kb: 1 µM
CCKA
  Ki: 1 µM

## O=C(O)CNC(=O)[C@H]1CCCN1C(=O)C1C2CCC(c3ccccc32)C1C(=O)NCC12CC3CC(CC(C3)C1)C2 (stereo partly drawn) [Example 42, cis-exo-7-(2R-carboxymethylaminocarbonyl-pyrrolidinocarbonyl)-8-(1-adamantylmethylaminocarbonyl)-2,3-benzobicyclo[2.2.2]octane]
CCKB receptor
  Ki: 3.98 µM
CCKA
  Ki: 6.31 µM

## endo-cis-7-(2-R-carboxy-pyrrolidinocarbonyl)-8-(1-adamantylmethylaminocarbonyl)-2-oxo-5,6-benzobicyclo[2.2.2]octane [Example 35]
CCKB receptor
  CCKB pKi: 5.0
CCKA
  CCKA pKi: 4.8

## O=C(O)CNC(=O)[C@H]1CCCN1C(=O)C1C2c3ccccc3C(c3cc4ccccc4cc32)C1C(=O)NCC12CC3CC(CC(C3)C1)C2 (single isomer, unassigned) [Example 37, cis-7-(2R-carboxymethylaminocarbonyl-pyrrolidinocarbonyl)-8-(1-adamantylmethylaminocarbonyl)-2,3-benzo-5,6-(2,3-naphtho)bicyclo[2.2.2]octane]
CCKB receptor
  Ki: 0.158 µM
Gastrin receptors
  Kb: 0.501 µM
CCKA
  Ki: 3.16 µM

## O=C1CC2c3ccccc3C1C(C(=O)N1CCC[C@@H]1C(=O)O)C2C(=O)NCC12CC3CC(CC(C3)C1)C2 (single isomer, unassigned) [Example 34, endo-cis-7-(2-R-carboxy-pyrrolidinocarbonyl)-8-(1-adamantylmethylaminocarbonyl)-2-oxo-5,6-benzobicyclo[2.2.2]octane]
CCKB receptor
  Ki: 6.31 µM
CCKA
  Ki: 7.94 µM
